Reference: ChEMBL document CHEMBL3045522, “Responses of dry beans (Phaseolus vulgaris L.) to sulfentrazone” (Crop Prot, 2007)

What was measured:
Type in all cases: organism-based
[1] = tested on: Phaseolus vulgaris; experiment: Phytotoxicity against Phaseolus vulgaris (Pinto dry beans) assessed as yield at 420 g a.i./ha applied pre-emergence (reference value: 3.1 +/- 0.1 tons/ha); settings: in vivo, other
[2] = tested on: Phaseolus vulgaris; experiment: Phytotoxicity against Phaseolus vulgaris (White dry beans) assessed as reduction in shoot dry weight at 840 g a.i./ha applied pre-emergence measured at 42 days post-emergence relative to control; design: scale not given: the % may be the effect or the level left; settings: in vivo, other, 1008 h
[3] = tested on: Phaseolus vulgaris; experiment: Phytotoxicity against Phaseolus vulgaris (Otebo dry beans) assessed as yield at 420 g a.i./ha applied pre-emergence (reference value: 3.1 +/- 0.1 tons/ha); settings: in vivo, other
[4] = tested on: Phaseolus vulgaris; experiment: Phytotoxicity against Phaseolus vulgaris (Kidney dry beans) assessed as reduction in shoot dry weight at 840 g a.i./ha applied pre-emergence measured at 42 days post-emergence relative to control; design: scale not given: the % may be the effect or the level left; settings: in vivo, other, 1008 h
[5] = tested on: Phaseolus vulgaris; experiment: Phytotoxicity against Phaseolus vulgaris (Brown dry beans) assessed as plant height at 840 g a.i./ha applied pre-emergence measured at 28 days post-emergence (reference value: 33 +/- 1 cm); settings: in vivo, other, 672 h
[6] = tested on: Phaseolus vulgaris; experiment: Phytotoxicity against Phaseolus vulgaris (Brown dry beans) assessed as yield at 420 g a.i./ha applied pre-emergence (reference value: 2.3 +/- 0.1 tons/ha); settings: in vivo, other
[7] = tested on: Phaseolus vulgaris; experiment: Phytotoxicity against Phaseolus vulgaris (Pinto dry beans) assessed as shoot dry weight at 420 g a.i./ha applied pre-emergence measured at 42 days post-emergence (reference value: 134 +/- 11 g/m); settings: in vivo, other, 1008 h
[8] = tested on: Phaseolus vulgaris; experiment: Phytotoxicity against Phaseolus vulgaris (Yellow eye dry beans) assessed as plant height at 420 g a.i./ha applied pre-emergence measured at 28 days post-emergence (reference value: 33 +/- 1 cm); settings: in vivo, other, 672 h
[9] = tested on: Phaseolus vulgaris; experiment: Phytotoxicity against Phaseolus vulgaris (Yellow eye dry beans) assessed as visual crop injury at 420 to 840 g a.i./ha applied pre-emergence measured at 28 days post-emergence relative to control; settings: in vivo, other, 672 h
[10] = tested on: Phaseolus vulgaris; experiment: Phytotoxicity against Phaseolus vulgaris (Otebo dry beans) assessed as reduction in shoot dry weight at 840 g a.i./ha applied pre-emergence measured at 42 days post-emergence relative to control; design: scale not given: the % may be the effect or the level left; settings: in vivo, other, 1008 h
[11] = tested on: Phaseolus vulgaris; experiment: Phytotoxicity against Phaseolus vulgaris (Brown dry beans) assessed as shoot dry weight at 840 g a.i./ha applied pre-emergence measured at 42 days post-emergence (reference value: 123 +/- 7 g/m); settings: in vivo, other, 1008 h
[12] = tested on: Phaseolus vulgaris; experiment: Phytotoxicity against Phaseolus vulgaris (dry beans) assessed as change in seed moisture content at 420 to 840 g a.i./ha applied pre-emergence relative to control; settings: in vivo, other
[13] = tested on: Phaseolus vulgaris; experiment: Phytotoxicity against Phaseolus vulgaris (Black dry beans) assessed as yield at 420 g a.i./ha applied pre-emergence (reference value: 3.4 +/- 0.2 tons/ha); settings: in vivo, other
[14] = tested on: Phaseolus vulgaris; experiment: Phytotoxicity against Phaseolus vulgaris (Pinto dry beans) assessed as plant height at 840 g a.i./ha applied pre-emergence measured at 28 days post-emergence (reference value: 32 +/- 1 cm); settings: in vivo, other, 672 h
[15] = tested on: Phaseolus vulgaris; experiment: Phytotoxicity against Phaseolus vulgaris (Kidney dry beans) assessed as visual crop injury at 420 to 840 g a.i./ha applied pre-emergence measured at 28 days post-emergence relative to control; settings: in vivo, other, 672 h
[16] = tested on: Phaseolus vulgaris; experiment: Phytotoxicity against Phaseolus vulgaris (dry bean) assessed as visual crop injury at 840 g a.i./ha applied pre-emergence measured at 14 days post-emergence relative to control; settings: in vivo, other, 336 h
[17] = tested on: Phaseolus vulgaris; experiment: Phytotoxicity against Phaseolus vulgaris (Pinto dry beans) assessed as visual crop injury at 420 to 840 g a.i./ha applied pre-emergence measured at 28 days post-emergence relative to control; settings: in vivo, other, 672 h
[18] = tested on: Phaseolus vulgaris; experiment: Phytotoxicity against Phaseolus vulgaris (Yellow eye dry beans) assessed as yield at 420 g a.i./ha applied pre-emergence (reference value: 2 +/- 0.1 tons/ha); settings: in vivo, other
[19] = tested on: Phaseolus vulgaris; experiment: Phytotoxicity against Phaseolus vulgaris (Black dry beans) assessed as visual crop injury at 420 to 840 g a.i./ha applied pre-emergence measured at 28 days post-emergence relative to control; settings: in vivo, other, 672 h
[20] = tested on: Phaseolus vulgaris; experiment: Phytotoxicity against Phaseolus vulgaris (Otebo dry beans) assessed as plant height at 420 g a.i./ha applied pre-emergence measured at 28 days post-emergence (reference value: 31 +/- 2 cm); settings: in vivo, other, 672 h
[21] = tested on: Phaseolus vulgaris; experiment: Phytotoxicity against Phaseolus vulgaris (Cranberry dry beans) assessed as shoot dry weight at 420 g a.i./ha applied pre-emergence measured at 42 days post-emergence (reference value: 138 +/- 8 g/m); settings: in vivo, other, 1008 h
[22] = tested on: Phaseolus vulgaris; experiment: Phytotoxicity against Phaseolus vulgaris (Otebo dry beans) assessed as shoot dry weight at 420 g a.i./ha applied pre-emergence measured at 42 days post-emergence (reference value: 156 +/- 10 g/m); settings: in vivo, other, 1008 h
[23] = tested on: Phaseolus vulgaris; experiment: Phytotoxicity against Phaseolus vulgaris (Brown dry beans) assessed as plant height at 420 g a.i./ha applied pre-emergence measured at 28 days post-emergence (reference value: 33 +/- 1 cm); settings: in vivo, other, 672 h
[24] = tested on: Phaseolus vulgaris; experiment: Phytotoxicity against Phaseolus vulgaris (Black dry beans) assessed as reduction in yield at 840 g a.i./ha applied pre-emergence relative to control; design: scale not given: the % may be the effect or the level left; settings: in vivo, other
[25] = tested on: Phaseolus vulgaris; experiment: Phytotoxicity against Phaseolus vulgaris (dry bean) assessed as visual crop injury at 420 g a.i./ha applied pre-emergence measured at 14 days post-emergence relative to control; settings: in vivo, other, 336 h
[26] = tested on: Phaseolus vulgaris; experiment: Phytotoxicity against Phaseolus vulgaris (Kidney dry beans) assessed as yield at 420 g a.i./ha applied pre-emergence (reference value: 1.9 +/- 0.1 tons/ha); settings: in vivo, other
[27] = tested on: Phaseolus vulgaris; experiment: Phytotoxicity against Phaseolus vulgaris (Black dry beans) assessed as shoot dry weight at 420 g a.i./ha applied pre-emergence measured at 42 days post-emergence (reference value: 136 +/- 9 g/m); settings: in vivo, other, 1008 h
[28] = tested on: Phaseolus vulgaris; experiment: Phytotoxicity against Phaseolus vulgaris (Cranberry dry beans) assessed as reduction in shoot dry weight at 840 g a.i./ha applied pre-emergence measured at 42 days post-emergence relative to control; design: scale not given: the % may be the effect or the level left; settings: in vivo, other, 1008 h
[29] = tested on: Phaseolus vulgaris; experiment: Phytotoxicity against Phaseolus vulgaris (White dry beans) assessed as plant height at 420 g a.i./ha applied pre-emergence measured at 28 days post-emergence (reference value: 31 +/- 2 cm); settings: in vivo, other, 672 h

Cc1nn(-c2cc(NS(C)(=O)=O)c(Cl)cc2Cl)c(=O)n1C(F)F [SULFENTRAZONE]
Crop_yield [1]: 3.4 tons/ha | Activity [2]: 30% | Crop_yield [3]: 3 tons/ha | Activity [4]: 35% | Activity [5]: 28 cm | Crop_yield [6]: 2.3 tons/ha | Activity [7]: 149 g/m | Activity [8]: 31 cm | Activity [9]: 13.1% | Activity [10]: 36% | Activity [11]: 121 g/m | Activity [12]: Non-toxic | Crop_yield [13]: 2.9 tons/ha | Activity [14]: 26 cm | Activity [15]: 15.9% | Activity [16]: 30% | Activity [17]: 9.2% | Crop_yield [18]: 2 tons/ha | Activity [19]: 16.6% | Activity [20]: 28 cm | Activity [21]: 138 g/m | Activity [22]: 157 g/m | Activity [23]: 31 cm | Activity [24]: 47% | Activity [25]: 12% | Crop_yield [26]: 1.9 tons/ha | Activity [27]: 111 g/m | Activity [28]: 40% | Activity [29]: 27 cm
